Reference: patent publication US12583818B2 (DAEGU-GYEONGBUK MEDICAL INNOVATION FOUNDATION, priority 2020, dated 2026)

The compounds below were run against T1, Pin1 (Homo sapiens, UniProt Q13526) (assay: Evaluation of Pin1 enzyme inhibitory activity (Sensolyte Green Pin1 assay kit)). Conditions: concentration at which the Pin1 enzyme activity is inhibited; 2 hours at room temperature, fluorescence 490 nm/520 nm; read-out: Pin 1 inhibition.
T1 construct: purchased Anaspec
Assay type: biochemical
Procedure: In order to evaluate the Pin1 enzyme inhibitory activity of the compound represented by formula 1 according to the present invention, the following experiment was performed, and the results are shown in Table 2 below.
The enzyme activity of Pin1 protein was measured using a sensolyte Green Pin1 assay kit of Anaspec. The substrate was diluted in a buffer at a ratio of 1:100 to prepare a concentration of 1 μM, and the protein was diluted in a buffer at a ratio of 1:20 to prepare a concentration of 50 μg/ml. In addition, a developing solution was prepared by diluting thereof in a buffer at a ratio of 1:100.
The compound prepared in each example was diluted with DMSO and prepared at a concentration of 100 μM, 10 μM, 1 μM or 0.1 μM using a buffer. After sequentially adding 10 μl of the compound prepared in each Example diluted to four concentrations according to the above method, 10 μl of Pin1 protein, and 30 μl of the developing solution to each well of a black 96-well plate, […]. Finally, 50 μl of the substrate was added to each well of the plate, and the enzyme reaction was carried out after shaking the plate for 10 seconds.
Then, the plate was incubated for 2 hours at room temperature in an environment without light, and the fluorescence values at 490 nm/520 nm wavelength were measured using a device of Synergy Neo […]. The results are shown in Table 2 below by dividing the grades of A to D for each concentration (μM) at which the Pin1 enzyme activity is inhibited.

T1 sequence (Q13526 whole entry): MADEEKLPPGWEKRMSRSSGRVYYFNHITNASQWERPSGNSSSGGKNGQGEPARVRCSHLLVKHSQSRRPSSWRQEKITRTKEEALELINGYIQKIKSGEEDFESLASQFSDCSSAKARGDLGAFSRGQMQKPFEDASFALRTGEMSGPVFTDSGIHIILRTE

Q: For `CC(C)N1CCN(CCCOc2ccc(S(=O)(=O)NCCc3c[nH]c4ccccc34)cc2)CC1` [Example 51, N-(2-(1H-indol-3-yl)ethyl)-4-(3-(4-isopropylpiperazin-1-yl)propoxy)benzenesulfonamide], which IC50 is on record?
A: > 100 µM

Q: With `CN1CCN(CCOc2ccc(S(=O)(=O)NCCCc3c[nH]c4ccccc34)cc2)CC1` [Example 52, N-(3-(1H-indol-3-yl)propyl)-4-(2-(4-methylpiperazin-1-yl)ethoxy)benzenesulfonamide] as the compound, how does the IC50 read?
A: 10 to 100 µM

Q: `CC(C)N1CCN(CCOc2ccc(S(=O)(=O)NCCCc3c[nH]c4ccccc34)cc2)CC1` [Example 53, N-(3-(1H-indol-3-yl)propyl)-4-(2-(4-isopropylpiperazin-1-yl)ethoxy)benzenesulfonamide] was tested. Which IC50 did it give?
A: 10 to 100 µM

Q: With `Cc1[nH]c2ccccc2c1CCNS(=O)(=O)c1ccc(OCCCN2CCN(C)CC2)cc1` [Example 54, N-(2-(2-methyl-1H-indol-3-yl)ethyl)-4-(3-(4-methylpiperazin-1-yl)propoxy)benzenesulfonamide] as the compound, how does the IC50 read?
A: 10 to 100 µM

Q: How did the IC50 turn out when `CN1CCN(CCCOc2ccc(S(=O)(=O)NCCCc3c[nH]c4ccccc34)cc2F)CC1` [Example 62, N-(3-(1H-indol-3-yl)propyl)-3-fluoro-4-(3-(4-methylpiperazin-1-yl)propoxy)benzenesulfonamide] was run?
A: 1 to 10 µM

Q: How did the IC50 turn out when `CCN1CCN(CCCOc2ccc(S(=O)(=O)NCCCc3c[nH]c4ccc(F)cc34)cc2)CC1` [Example 63, 4-(3-(4-ethylpiperazin-1-yl)propoxy)-N-(3-(5-fluoro-1H-indol-3-yl)propyl)benzenesulfonamide] was run?
A: 1 to 10 µM

Q: For `COc1ccc2[nH]cc(C3CCN(S(=O)(=O)c4ccc(OCCCN5CCN(C)CC5)cc4)CC3)c2c1` [Example 64, 5-methoxy-3-(1-((4-(3-(4-methylpiperazin-1-yl)propoxy)phenyl)sulfonyl)piperidin-4-yl)-1H-indole], which IC50 is on record?
A: 10 to 100 µM

Q: Which IC50 does the source give for `Cc1ccc2[nH]cc(C3CCN(S(=O)(=O)c4ccc(OCCCN5CCN(C)CC5)cc4)CC3)c2c1` [Example 65, 5-methyl-3-(1-((4-(3-(4-methylpiperazin-1-yl)propoxy)phenyl)sulfonyl)piperidin-4-yl)-1H-indole] here?
A: 10 to 100 µM

Q: How did the IC50 turn out when `Cc1ccc2[nH]cc(CCCNS(=O)(=O)c3ccc(OCCCN4CCN(C)CC4)cc3)c2c1` [Example 67, N-(3-(5-methyl-1H-indol-3-yl)propyl)-4-(3-(4-methylpiperazin-1-yl)propoxy)benzenesulfonamide] was run?
A: 1 to 10 µM

Q: How did the IC50 turn out when `COc1ccc2[nH]cc(CCCNS(=O)(=O)c3ccc(OCCCN4CCN(C)CC4)cc3)c2c1` [Example 68, N-(3-(5-methoxy-1H-indol-3-yl)propyl)-4-(3-(4-methylpiperazin-1-yl)propoxy)benzenesulfonamide] was run?
A: 1 to 10 µM

Q: `O=S(=O)(NCCCc1c[nH]c2ccccc12)c1ccc(OCCCN2CCC(O)CC2)cc1` [Example 69, N-(3-(1H-indol-3-yl)propyl)-4-(3-(4-hydroxypiperidin-1-yl)propoxy)benzenesulfonamide] was tested. Which IC50 did it give?
A: 1 to 10 µM

Q: For `CN1CCN(CCCOc2ccc(S(=O)(=O)N3CCC(c4c[nH]c5ccc(F)cc45)CC3)cc2)CC1` [Example 71, 5-fluoro-3-(1-((4-(3-(4-methylpiperazin-1-yl)propoxy)phenyl)sulfonyl)piperidin-4-yl)-1H-indole], which IC50 is on record?
A: 10 to 100 µM

Q: `C[C@@H]1CN(CCCOc2ccc(S(=O)(=O)NCCCc3c[nH]c4ccc(F)cc34)cc2)C[C@H](C)N1` [Example 72, 4-(3-((3S,5R)-3,5-dimethylpiperazine-1-yl)propoxy)-N-(3-(5-fluoro-1H-indole-3-yl)propyl)benzenesulfonamide] was tested. Which IC50 did it give?
A: 10 to 100 µM

Q: How did the IC50 turn out when `CC(C)C(=O)N1CCN(CCCOc2ccc(S(=O)(=O)NCCCc3c[nH]c4ccc(F)cc34)cc2)CC1` [Example 73, N-(3-(5-fluoro-1H-indol-3-yl)propyl)-4-(3-(4-isobutyrylpiperazin-1-yl)propoxy)benzenesulfonamide] was run?
A: 10 to 100 µM
